This is an account of results in patent US10065926B2, “Use of substituted dihydrooxindolylsulfonamides, or the salts thereof, for increasing the stress tolerance of plants” (BAYER CROPSCIENCE AKTIENGESELLSCHAFT, priority 2013, dated 2018).

This assay addresses T1, phosphatase ABI1 via the co-regulator RCAR11/PYR1 (Arabidopsis thaliana, UniProt O49686+P49597).
T1 sequence (P49597 1-434): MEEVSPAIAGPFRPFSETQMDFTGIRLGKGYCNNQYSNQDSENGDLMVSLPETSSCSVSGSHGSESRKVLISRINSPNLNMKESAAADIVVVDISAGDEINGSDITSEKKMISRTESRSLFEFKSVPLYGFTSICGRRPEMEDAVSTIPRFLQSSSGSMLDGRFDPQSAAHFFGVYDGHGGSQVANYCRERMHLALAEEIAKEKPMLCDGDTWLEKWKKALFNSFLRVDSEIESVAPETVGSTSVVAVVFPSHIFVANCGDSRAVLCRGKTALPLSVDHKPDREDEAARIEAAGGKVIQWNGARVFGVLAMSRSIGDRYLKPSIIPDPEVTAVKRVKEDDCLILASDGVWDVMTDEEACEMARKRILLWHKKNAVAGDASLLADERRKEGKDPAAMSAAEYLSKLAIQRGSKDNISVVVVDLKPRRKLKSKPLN
T1 sequence (O49686 1-191): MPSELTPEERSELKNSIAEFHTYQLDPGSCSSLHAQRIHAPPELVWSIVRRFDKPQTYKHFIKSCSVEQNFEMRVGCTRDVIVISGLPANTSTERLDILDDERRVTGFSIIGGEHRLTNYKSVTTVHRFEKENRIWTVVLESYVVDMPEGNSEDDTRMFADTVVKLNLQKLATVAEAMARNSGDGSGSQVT
The experiment in a line: In vitro inhibition of phosphatase ABI1 via co-regulator RCAR11/PYR1, MUP dephosphorylation, fluorescence. Format: biochemical. Conditions: at a concentration of 5 mM of the substance in a solution of DMSO and water; 35° C., 20 minutes. The text has this: Effects of the phytohormone abscisic acid (ABA) on the behavior of plants under abiotic stress and the mechanism of action of ABA are described in the literature (cf. Abrams et al., WO97/23441, Cutler, Park et al. Science, 2009, 324, 1068; Grill et al. Science, 2009, 324, 1064; Tanokura et al. Biophysics, 2011, 7, 123; Schroeder et al. Plant J. 2010, 61, 290). Therefore, it is possible with the aid of a suitable in vitro test system to derive a correlation between the action of ABA and the stress response of a plant under abiotic stress. In the event of water deficiency (drought stress), plants form the phytohormone abscisic acid (ABA). This binds, along with a co-regulator (Regulatory Component of ABA-Receptor=RCAR according to Grill et al. Science, 2009, 324, 1064 or PYR/PYL according to Cutler et al. Science, 2009, 324, 1068), to a phosphatase (e.g. ABI1, a type 2C protein phosphatase, also abbreviated to PP2C) and inhibits its activity. […] For the determination of activity, the dephosphorylation of 4-methylumbelliferyl phosphate (MUP) was measured at 460 nm. […]
Enzyme buffer mix and substrate mix were made up 5 minutes prior to the addition and warmed to a temperature of 35° C. […] Finally, a relative fluorescence measurement was made at 35° C. with a BMG Labtech “POLARstar Optima” microplate reader using a 340/10 nm excitation filter and a 460 nm emission filter. […]

Molecules are shown by their SMILES.

Take `CC1=CC(=O)CC(C)(C)[C@@]1(O)/C=C/C(C)=C\C(=O)O` [abscisic acid]: the ABI1 inhibition entry was “++++ (≥90% inhibition)”.
